The test system of assay [1] is Ba/F3 LMNA-NTRK1-A608D. The assay can be described thus: Ba/F3 cell viability (anti-proliferative activity). Format: cell-based, mouse. The source says: (§1) NTRK fusion-positive colorectal cancer cell lines IRC, Kor1, and KM12 were utilized. The IRC and the KM12 cell lines were obtained from Dr. Bardelli and cultured according to the described protocols. The Kor1 cell line was obtained from Lee et al. and cultured on laminin pre-treated plates in RPMI media supplemented with 10% Fetal Bovine Serum (FBS). All cell lines were authenticated by STR and periodically screened for the presence of mycoplasma. For the mutant models, two human-derived colorectal cancer cell lines (IRC) and two mouse-derived glioma models (NLS) were used. […] Sequencing of the double mutant cell line was performed using MSK-IMPACT [25]. IRC primary cell lines were cultured with DMEM/F12 50:50 Mix (Corning) supplemented with 10% FBS. NLS Bcan-Ntrk1 Trka G598R and Bcan-Ntrk1 Trka G670C single mutants as well as double mutants NLS Bcan-Ntrk1 Trka G598R/G670A and NLS Bcan-Ntrk1 Trka G598R/G670C isogenic models were established using CRISPR/Cas9 to knock-in TRKA solvent-front and xDFG mutations into tumor cells derived from a Bcan-Ntrk1-driven glioma mouse model. Trka G598R is the mouse ortholog to human TRKA G595R while Trka G670A and Trka G670C are the mouse ortholog to human TRKA G667A and TRKA G667C, respectively. Mouse p53 ^−/^− Bcan-Ntrk1 glioma cells were plated on laminin-coated plates and cultured with Neurocult Stem Cell Basal Media with Proliferation Supplements (Stem Cell Technologies). Ba/F3 cell lines stably expressing WT and mutant versions (i.e. G595R, G667C/A, V573M, F589L, F633L, F617L, G623R/E, G639R, G696A/C, G709C, V608D/M) of human TRKA, TRKB or TRKC were generated using either lentiviral transduction or standard transfection methods by a contract research organization (Kyinno, Beijing, China).
(§2) CellTiter-Glo Cell Viability Assays (Promega) and crystal violet clonogenic assays were performed on primary NTRK fusion-positive colorectal cancer cell lines, mouse Ba/F3 cell lines and isogenic mouse glioma cell lines. For the CellTiter-Glo assays, three biological replicates were performed, with each condition being assayed in triplicate determinations. Cells were seeded in a 96-well plate in the afternoon at optimal density. […] Plates were removed from the incubator 72 h later and CellTiter-Glo reagent was added. Absorbance was read at 490 nm in accordance with Promega’s protocol. Data is presented as a survival percentage on the y-axis (mean ± STDEV) normalized to the control DMSO-treated cells deemed 100% viable. Drug concentrations on the x-axis are represented as a base 10 logarithm (LOG). For the crystal violet assays, cells were seeded in a 24-well plate at optimal densities in the afternoon. […] Crystal violet plates were removed from the incubator 72 h later, washed with PBS, fixed with 4% paraformaldehyde for 15 min, and stained with crystal violet for 10 min. Crystal violet was washed off and plates were left to dry prior to imaging. Clonogenic assays were performed in three biological replicates.
(§3) Statistical analyses were conducted using GraphPad Prism 9 (GraphPad Software Inc.). For CellTiter-Glo assays, raw data obtained were normalized to the DMSO control utilizing Microsoft Excel. […] Data is presented as the mean ± standard deviation (STDEV) of all replicates. Measurements were assessed for normal distribution and homogeneity of variance using appropriate tests and were analyzed using analysis of variance or T-Tests, and nonparametric tests were used for non-normal distributed data. Animal studies utilized five arms with six or eight mice per arm. A Kaplan–Meier test was used to assess lifespan characteristics and for comparison between groups. Median survivals were obtained using GraphPad Prism 9. Sample size was based on statistical power analysis to ensure sufficient capability to detect a pre-specified effect size. We assumed a moderate effect size, with an alpha level set at 0.05, and a power (1-β) set at 0.80.

Assay [2] relates to Ba/F3 LMNA-NTRK1-F589L. The assay can be described thus: Ba/F3 cell viability (anti-proliferative activity). Format: cell-based, mouse.
Source text: as §1, §2, §3

Assay [3] has as its system Ba/F3 LMNA-NTRK1-G595R. The assay can be described thus: Ba/F3 cell viability (anti-proliferative activity). Format: cell-based, mouse.
Source text: as §1, §2, §3

Assay [4] has as its system Ba/F3 LMNA-NTRK1-G667A. The assay can be described thus: Ba/F3 cell viability (anti-proliferative activity). Format: cell-based, mouse.
Source text: as §1, §2, §3

Assay [5] concerns Ba/F3 LMNA-NTRK1-G667C. The experiment in a line: Ba/F3 cell viability (anti-proliferative activity). It is filed as cell-based, mouse.
Source text: as §1, §2, §3

The subject of assay [6] is Ba/F3 LMNA-NTRK1. The assay can be described thus: Ba/F3 cell viability (anti-proliferative activity). It is filed as cell-based, mouse.
Source text: as §1, §2, §3

Assay [7] relates to Ba/F3-LMNA-NTRK1-V573M. The experiment in a line: Ba/F3 cell viability (anti-proliferative activity). It is filed as cell-based, mouse.
Source text: as §1, §2, §3

The subject of assay [8] is KM12 xenografts. The assay can be described thus: KM12 subcutaneous xenograft efficacy study. It is filed as in vivo, BALB/c nude female mice. Particulars: 30 mg/kg BID versus 1 mg/kg BID zurletrectinib, oral. The procedure: KM12 and Ba/F3 LMNA-NTRK1, TRKA G595R xenografts were generated by subcutaneous injection of five and six million cells into the right flank of 6–8 weeks old BALB/c nude female mice, respectively. Treatment with zurletrectinib, selitrectinib and larotrectinib started at tumor reaching around 150 mm^3. Xenografts were randomized into different groups (8 mice per group) based on tumor size and dosed orally with zurletrectinib (0.1, 0.3, 1 mg/kg BID for KM12 models and 0.3, 1, 3 mg/kg BID for Ba/F3 models), selitrectinib (30 mg kg^−1 BID per day) and larotrectinib (30 mg kg^−1 BID) for constant 10 days or 23 days for KM12 or Ba/F3 models, respectively. Eight mice per group were included in each experiment. Randomization was conducted without utilizing a blind method. Tumors were measured twice weekly using calipers and body weight was also assessed twice weekly. At the end of each treatment, animals were euthanized. The vehicles were formulated as follows: were first dissolved in Cremophor EL/ethanol (50:50) as a 4× stock solution, vortexed, sonicated and then diluted to a 1× solution with saline before use.

In assay [9] the target is T1, TRKA G595R (Homo sapiens, UniProt P04629, G595R).
T1 construct: purchased SignalChem Biotech Inc (Richmond, BC, Canada)
T1 sequence (P04629 33-796 G595R): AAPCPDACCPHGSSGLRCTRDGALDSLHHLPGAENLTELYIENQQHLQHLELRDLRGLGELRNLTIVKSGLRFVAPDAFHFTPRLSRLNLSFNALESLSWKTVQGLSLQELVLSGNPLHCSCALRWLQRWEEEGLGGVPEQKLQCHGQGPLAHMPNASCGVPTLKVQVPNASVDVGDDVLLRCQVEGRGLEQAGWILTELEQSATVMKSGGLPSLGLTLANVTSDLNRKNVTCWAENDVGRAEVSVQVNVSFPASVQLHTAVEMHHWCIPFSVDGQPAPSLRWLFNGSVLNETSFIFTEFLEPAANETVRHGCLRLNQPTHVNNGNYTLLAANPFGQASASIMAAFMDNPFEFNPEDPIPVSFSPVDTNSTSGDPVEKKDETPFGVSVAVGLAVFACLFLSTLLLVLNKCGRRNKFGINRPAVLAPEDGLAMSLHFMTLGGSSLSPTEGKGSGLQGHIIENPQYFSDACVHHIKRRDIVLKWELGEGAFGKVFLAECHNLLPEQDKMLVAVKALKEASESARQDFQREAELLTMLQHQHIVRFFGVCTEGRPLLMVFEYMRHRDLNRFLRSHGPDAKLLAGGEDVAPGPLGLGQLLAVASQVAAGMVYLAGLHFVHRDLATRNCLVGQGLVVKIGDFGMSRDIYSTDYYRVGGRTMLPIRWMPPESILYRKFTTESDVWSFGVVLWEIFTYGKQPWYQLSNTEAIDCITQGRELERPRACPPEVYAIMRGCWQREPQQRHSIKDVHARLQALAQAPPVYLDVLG
The assay can be described thus: In vitro HTRF kinase assay, recombinant TRKA G595R. It is filed as biochemical. The procedure:
Recombinant kinases were purchased from SignalChem Biotech Inc (Richmond, BC, Canada). In vitro kinase assays were performed following the optimization of the HTRF Kinase Assay (Cisbio). […] ATP concentrations ranged from 1 to 10 µM based on internal optimization.

Assay [10] deals with IRC LMNA-NTRK1 TRKA G595R. The assay can be described thus: Proliferation, clonogenic and western blot assays, primary IRC cell line with TRKA G595R. It is filed as cell-based. The conditions noted are these: primary human NTRK fusion-positive cell line with TRKA G595R. The source says:
NTRK fusion-positive colorectal cancer cell lines IRC, Kor1, and KM12 were utilized. The IRC and the KM12 cell lines were obtained from Dr. Bardelli and cultured according to the described protocols. The Kor1 cell line was obtained from Lee et al. and cultured on laminin pre-treated plates in RPMI media supplemented with 10% Fetal Bovine Serum (FBS). All cell lines were authenticated by STR and periodically screened for the presence of mycoplasma. For the mutant models, two human-derived colorectal cancer cell lines (IRC) and two mouse-derived glioma models (NLS) were used. […] Sequencing of the double mutant cell line was performed using MSK-IMPACT [25]. IRC primary cell lines were cultured with DMEM/F12 50:50 Mix (Corning) supplemented with 10% FBS. NLS Bcan-Ntrk1 Trka G598R and Bcan-Ntrk1 Trka G670C single mutants as well as double mutants NLS Bcan-Ntrk1 Trka G598R/G670A and NLS Bcan-Ntrk1 Trka G598R/G670C isogenic models were established using CRISPR/Cas9 to knock-in TRKA solvent-front and xDFG mutations into tumor cells derived from a Bcan-Ntrk1-driven glioma mouse model. […]
CellTiter-Glo Cell Viability Assays (Promega) and crystal violet clonogenic assays were performed on primary NTRK fusion-positive colorectal cancer cell lines, mouse Ba/F3 cell lines and isogenic mouse glioma cell lines. […] Absorbance was read at 490 nm in accordance with Promega’s protocol. […]
A general note: A western blot detects proteins with antibodies after separation by electrophoresis.

Like-named read-outs stand apart in the source and are kept apart here.

With `O=C(Nc1cnn2ccc(N3CCC[C@@H]3c3cc(F)ccc3F)nc12)N1CC[C@H](O)C1` [Larotrectinib, larotrectinib], the IC50 (usually the point on the concentration scale where inhibition reaches its midpoint) is 19.7 nM in assay [1] (Mus musculus, BaF3); 614 nM in assay [2] (Mus musculus, BaF3); 3200 nM in [3] (Mus musculus, BaF3); 118 nM in assay [4] (Mus musculus, BaF3); 1370 nM in assay [5] (Mus musculus, BaF3); 21.8 nM in [6] (Mus musculus, BaF3). The same compound returned a 50% inhibitory concentration (IC50) in assay [7] (Mus musculus, BaF3) of 45.4 nM. For the same compound, the “Fold higher dose necessary to achieve the same effect on tumor growth inhibition observed with zurletrectinib” value in assay [8] worked out at 30 fold.
For the compound `C[C@@H]1CCc2ncc(F)cc2[C@H]2CCCN2c2ccn3ncc(c3n2)C(=O)N1` [Selitrectinib, selitrectinib], the “Activity against TRKA G595R recombinant kinase” value in assay [9] was “active in the low nanomolar range”. Also, the IC50 in assay [1] (Mus musculus, BaF3) amounted to 3.16 nM; in assay [2] (Mus musculus, BaF3), 46.9 nM; in [3] (Mus musculus, BaF3), 18.1 nM; in [4] (Mus musculus, BaF3) it was 21.1 nM; in assay [5] (Mus musculus, BaF3), 164 nM; in [6] (Mus musculus, BaF3), 3.38 nM. In addition, the IC50 in assay [7] (Mus musculus, BaF3) is 5.47 nM. Moreover, the “Inhibition of growth and TRKA-mediated signaling” value in assay [10] was “able to inhibit the growth and TRKA-mediated signaling”. Besides, the “Fold higher dose necessary to achieve the same effect on tumor growth inhibition observed with zurletrectinib” value in assay [8] was 30 fold.
For zurletrectinib, the “Activity against TRKA G595R recombinant kinase” value in assay [9] is “active in the low nanomolar range”. In addition, the 50% inhibitory concentration (IC50) in [1] was found to be 1.18 nM; in assay [2], 40.8 nM; in assay [3] it was 11 nM; in assay [4], 5.27 nM; in [5] it was 38.8 nM; in [6], 1.2 nM. The same compound displayed an IC50 in [7] of 2.33 nM. In assay [10], the “Inhibition of growth and TRKA-mediated signaling” value is “able to inhibit the growth and TRKA-mediated signaling”.

For the origin of these results see paper PMC11300601, “Zurletrectinib is a next-generation TRK inhibitor with strong intracranial activity against NTRK fusion-positive tumours with on-target resistance to first-generation agents” (British Journal of Cancer, 2024).
